Experimental data reported in patent US20050288283A1, “Topical formulations for treating allergic diseases” (Alcon, Inc., priority 2004, published 2005).
Structures can show the parent of a compound that is named as a salt.

How the values were obtained:
[1] = tested on: human conjunctival tissue mast cells; assay: Histamine release from human conjunctival mast cells (anti-human IgE challenge); type: cell-based; conditions: Mast cell; goat-anti-human IgE 10 μg/mL challenge 15 min, after 1 or 15 minutes drug treatment; read-out: Human Conjunctiva Mast Cell Histamine Release IC50
Experimental: Methods detailing preparation of monodispersed human conjunctival tissue mast cell and mediator release studies with these cells have been described (Miller et al. 1996). Briefly, human conjunctival tissue mast cells were isolated from post-mortem tissue donors obtained within 8 hours of death by various eye banks and transported in Optisol® corneal preservation medium. Tissues were enzymatically digested by repeated exposure (30 min. at 37° C.) to collagenase and hyaluronidase (2× with 200 U each/gm tissue, then 2-4× with 2000 U each/gm tissue) in Tyrode's buffer containing 0.1% gelatin. Each digestion mixture was filtered over Nitex® cloth (100 μm mesh) and washed with an equal volume of buffer. Filtrates were centrifuged at 825×g (7 min). Pellets were resuspended in buffer then combined for enrichment over a […] Percoll® cushion. The enriched pellet was washed and resuspended in supplemented RPMI 1640 medium for equilibration at 37° C.
Cells were harvested from the culture plate and counted for viability (trypan blue exclusion) and mast cell number (toluidine blue 0). Mast cells (5000/tube; 1 mL final volume) were challenged (37° C.) for 15 min with goat-anti-human IgE (10 μg/mL) following treatment (1 or 15 minutes; 37° C.) with test drug or Tyrode's buffer. Total and non-specific release controls were exposed to 0.1% Triton X-100 and goat IgG (10 μg/mL), respectively. The reaction was terminated by centrifugation (500×g, 4° C., 10 min). Supernatants were stored at −20° C. until analyzed for histamine content by R I A Miller, S. et al., Ocular Immunology and Inflammation 4(1): 39-49 (1996).

H1 histamine receptor = molecular target: T1, H1 histamine receptor (Cavia porcellus, UniProt P31389); assay: Histamine receptor radioligand binding in washed rodent brain homogenates ([3H]pyrilamine); parameters: species or system guinea pig; conditions: 23° C. for 40 min
T1 construct: tissue Pel-Freez (Rogers, Ark.); host or cells: guinea pig forebrain homogenate (washed membranes)
Experimental: Histamine receptor binding was conducted in washed rodent brain homogenates. Briefly, guinea pig forebrains (for H1 and H2 receptors) and rat forebrains (for H3 receptor), obtained from Pel-Freez (Rogers, Ark.) were homogenized in 20 ml ice-cold phosphate buffered saline (PBS; pH 7.4) using a Polytron tissue disrupter (setting 5-7 for 10 sec) and centrifuged at 40,000 g for 15 min on a Beckman J2-MC centrifuge. The supernatants were discarded, the tissue pellets re-homogenized in fresh PBS buffer and centrifuged as described above. The final pellets were dispersed in 50 mM sodium potassium phosphate buffer (pH 7.5) and kept frozen at −40° C. until used in the binding assays.
The H1 histamine receptor binding assays were performed according to previously published methods with minor modifications (Chang, R. S. L., Tran, V. T., and Snyder, S. H. J. Neurochem., 32:1653-1663, 1979, Hill, S. J., Young, J. M., and Marrian, D. H. Nature, 270:361-363, 1977, Gajtkowski, G. A., Norris, D. B., Rising, T. J., and Wood, T. P. Nature, 304:65-67,1983, Korte, A., Myers, J., Shih, N.-Y., Egan, R. W., and Clark, M. A. Biochem. Biophys. Res. Comm., 168:979-986, 1990 . Briefly, 50 μl of [3H]pyrilamine (1-2 nM); 24 Ci/mmol from NEN, Boston, Mass.), [3H]tiotidine (4-5 nM; 87 Ci/mmol from NEN, Boston, Mass.) or [3H]N-methyl histamine (1-2 nM; 84 Ci/mmol from NEN, Boston, Mass.) were incubated with 200 μl of 2.5-4.0 mg/ml of frozen-thawed brain homogenates in the presence or absence of unlabeled test compounds (50 μl; 10 pM-100 μM) in a total volume of 500 μl in polypropylene tubes. The non-specific binding was determined with 5 mM histamine. Drug dilutions and dispensing of assay components were performed using a computer-controlled automated system (Biomek; Beckman, Fullerton, Calif.). The assays were conducted at 23° C. for 40 min and then terminated by rapid filtration over Whatman GF/B glass fiber filters presoaked in 0.3% polyethyleneimine using a Tomtec cell harvester (Gaithersburg, Md.). The assay tubes were rinsed with 2×6 ml of ice-cold 50 mM TrisHCl buffer (pH 7.4). The filter-bound radioactivity was determined on a Wallac Beta-plate (Gaithersburg, Md.) solid scintillation counter at 40-50% efficiency. The competition binding data were analyzed using an iterative curve-fitting computer program as previously described Michel, A. D. and Whiting, R. L. Brit. J. Pharmacol., 83:460p, 1984, Sharif, N. A., Wong, E. H. F., Loury, D., Stefanich, E., Eglen, R. M., Michel, A. D., and Whiting, R. L. Brit. J. Pharmacol., 102:919-925, 1991,. The drug affinities (dissociation constants, Kis) were calculated according to the Cheng-Prussof equation (Cheng, Y.-C. and Prusoff, W. H. Biochem. Pharmacol., 22:3099-3018, 1973 ): Ki=IC50/(1+L/Kd) where IC50 is the concentration of the drug needed to produce 50% inhibition of the receptor binding, L is the radioligand concentration in the assay and Kd is the dissociation constant of the radioligand.

[2] = tested on: Histamine induced vascular permeability in guinea pig conjunctiva; assay: Histamine induced vascular permeability in guinea pig conjunctiva; type: in vivo; conditions: topical 20 μl onto eye, 30 min before subconjunctival histamine
Experimental: Male Dunkin Hartley Viral Antibody Free out bread guinea pigs (Charles River Labs, Portage, Mich.), 250-350 grams, (6/group) were injected intravenously (i.v.) via the marginal ear vein with 1.0 ml of Evans Blue dye (1.0 mg/ml). Forty-five (45) min post dye injection, 20 μl of test compound or vehicle was applied topically onto one eye of each experimental animal. Thirty (30) min following topical drug application, guinea pigs were anesthetized and challenged subconjunctivally with histamine (300 ng/10 μl). Responses were quantitated as previously described by Yanni, J. M., Weimer, L. K., Glaser, R. K., Lang, L. S., Robertson, S. M., and Spellman, J. M. Int. Arch. Allergy Immunol. 101:102-106, 1993

[3] = % inhibition at concentration 0.1%
[4] = % inhibition at concentration 0.01%

T1 sequence (P31389 whole entry): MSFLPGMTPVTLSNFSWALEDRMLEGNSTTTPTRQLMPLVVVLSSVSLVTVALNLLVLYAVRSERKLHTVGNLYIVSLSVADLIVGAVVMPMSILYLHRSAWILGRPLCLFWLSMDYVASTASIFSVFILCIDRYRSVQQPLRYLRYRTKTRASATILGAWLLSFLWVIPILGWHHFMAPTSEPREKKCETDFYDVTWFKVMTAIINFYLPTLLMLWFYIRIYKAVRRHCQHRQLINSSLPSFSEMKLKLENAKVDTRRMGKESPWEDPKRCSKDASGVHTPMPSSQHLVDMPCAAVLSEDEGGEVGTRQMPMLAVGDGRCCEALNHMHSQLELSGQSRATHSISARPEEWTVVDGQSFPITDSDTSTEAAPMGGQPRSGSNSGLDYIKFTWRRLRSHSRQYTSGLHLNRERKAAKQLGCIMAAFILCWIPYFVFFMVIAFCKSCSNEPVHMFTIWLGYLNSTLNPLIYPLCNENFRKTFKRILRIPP

Row | Structure (SMILES) | IC50 [1] [µM] | IC50 (H1 histamine receptor) [µM] | further results
1 | CCN(CC)CCC1CCN(CCc2ccc3c(c2)/C(=C\CCN(C)C)c2ccccc2CO3)CC1 (as salt: fumaric acid salt) [Example 7, {3-[2-{2-[4-(2-Diethylamino-ethyl)-piperidin-1-yl]-ethyl}-6H-6,11-dibenz[b,e]oxepin-(11Z)-ylidene]-propyl}-dimethylamine fumaric acid salt] |  |  | melting point: 65 to 67 °C
2 | CN(C)CC/C=C1/c2ccccc2COc2ccc(CC(=O)NC[C@@H]3CCCO3)cc21 [Example 1, (S)-2-{11-[3-Dimethylamino-prop-(Z)-ylidene]-6,11-dihydro-dibenz[b,e]-oxepin-2-yl}-N-tetrahydro-furan-2-ylmethyl)acetamide fumaric acid salt] | 61 |  | 
3 | CCN(CC)CCC1CCN(C(=O)Cc2ccc3c(c2)/C(=C\CCN(C)C)c2ccccc2CO3)CC1 [Example 2, 1-[4-(2-Diethylamino-ethyl)-piperidin-1-yl]-2-{11-[3-dimethylamino-prop-(Z)-ylidene]-6,11-dihydro-dibenz[b,e]oxepin-2-yl}-ethanone fumaric acid salt] | 2 |  | 
4 | CN(C)CC/C=C1/c2ccccc2COc2ccc(CC(N)=O)cc21 [Example 3, 2-[11Z-(3-Dimethylaminopropylidene)-6,11-dihydrodibenzo[b,e]oxepin-2-yl]acetamide] | 480 | 0.0022 | Histamine Induced Vascular Permeability ED50 or [Concentration] and (% inhibition) ([2]; % inhibition at concentration printed as 0.018 (no % sign)): 0.018 (59%)
5 | CNC(=O)Cc1ccc2c(c1)/C(=C\CCN(C)C)c1ccccc1CO2 [Example 4, 2-[11Z-(3-Dimethylaminopropylidene)-6,11-dihydrodibenzo[b,e]oxepin-2-yl]-N-methylacetamide] | 220 | 0.0026 | Histamine Induced Vascular Permeability ED50 or [Concentration] and (% inhibition) [2, 3]: 0.1% (55%)
6 | CN(C)CC/C=C1/c2ccccc2COc2ccc(CC(=O)NCCO)cc21 [Example 5, 2-[11Z-(3-Dimethylaminopropylidene)-6,11-dihydrodibenzo[b,e]oxepin-2-yl]-N-(2-hydroxyethyl)acetamide] | 770 | 0.0013 | Histamine Induced Vascular Permeability ED50 or [Concentration] and (% inhibition) [2, 4]: 0.01% (43%)
7 | CN(C)CC/C=C1/c2ccccc2COc2ccc(CC(=O)N(C)C)cc21 [Example 6, 2-[11Z-(3-Dimethylaminopropylidene)-6,11-dihydrodibenzo[b,e]oxepin-2-yl]-N,N-dimethylacetamide] | 400 | 0.0026 | Histamine Induced Vascular Permeability ED50 or [Concentration] and (% inhibition) [2, 4]: 0.01% (56%)
8 | CN(C)CC/C=C1/c2ccccc2COc2ccc(CCN)cc21 [Example 8, {3-[2-(2-Aminoethyl)-6H-dibenzo[b,e]oxepin-11-ylidene]propyl}-dimethylamine] | 2 |  | Histamine Induced Vascular Permeability ED50 or [Concentration] and (% inhibition) [2, 3]: 0.1% (32%)
9 | CN(C)CC/C=C1/c2ccccc2COc2ccc(CCNS(C)(=O)=O)cc21 [Example 9, N-{2-[11-(3-Dimethylaminoprop-(Z)-ylidene)-6,11-dihydrodibenzo[b,e]-oxepin-2-yl]ethyl}-methanesulfonamide] | 15 | 0.127 | Histamine Induced Vascular Permeability ED50 or [Concentration] and (% inhibition) ([2]; % inhibition at concentration 0.018%): 0.018% (74%)
10 | CC(=O)NCCc1ccc2c(c1)/C(=C\CCN(C)C)c1ccccc1CO2 [Example 10, N-[2-[11-(3-Dimethylaminoprop-(Z)-ylidene)-6,11-dihydrodibenzo[b,e]-oxepin-2-yl]ethyl}-acetamide] | 13 | 0.054 | Histamine Induced Vascular Permeability ED50 or [Concentration] and (% inhibition) [2, 3]: 0.1% (41%)
11 | CN1CCC(=C2c3ccccc3COc3ccc(OCC(=O)O)cc32)CC1 [Example 11, [11-(1-Methylpiperidin-4-ylidene)-6,11-dihydrodibenzo[b,e]oxepin-2-yloxy]acetic acid hydrochloride] | 220 |  | 
